Legend:
[1] = system: SOCE (store operated calcium entry) in CHO cells; assay: Assay of SOCE (store operated calcium entry)-inhibiting action; assay type: cell-based, Chinese hamster; details: CHO cells, thapsigargin; for inhibition at 10 µM / inhibition at 30 µM / inhibition at 100 µM: Cricetulus griseus, CHO, read-out: SOCE level (percentage of inhibition)
How it was run: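 CHO cells in calcium-free BSS received compound, then 1 μM thapsigargin 2 min later to deplete stores; after 9 min, 2 mM calcium chloride (final) added. Percent inhibition of the rise in intracellular calcium determined at various compound concentrations.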

[2] = system: IICR (IP3 induced calcium release) in CHO cells; assay: Assay of IICR (IP3 induced calcium release)-inhibiting action; assay type: cell-based, Chinese hamster; details: CHO cells, 10 μM ATP; for inhibition at 10 µM / inhibition at 30 µM / inhibition at 100 µM: Cricetulus griseus, CHO, read-out: IICR level (percentage of inhibition)
How it was run: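 CHO cell medium replaced with calcium-containing BSS; compound added 1 min later, then 10 μM ATP after a further 2 min. Percent inhibition of the ATP-evoked rise in intracellular calcium determined at each compound concentration.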

## O=C(CCN(CCO)Cc1ccccc1)c1ccc[nH]1 [Example 173, 2-(N-benzylhydroxyethyl)aminoethyl-2-pyrrolylketone]
[1]; test compound 10 μmol
  inhibition at 10 µM: 0%
[1]; test compound 30 μmol
  inhibition at 30 µM: 0%
[1]; test compound 100 μmol
  inhibition at 100 µM: 0%
[2]; test compound 10 μmol
  inhibition at 10 µM: 0%
[2]; test compound 30 μmol
  inhibition at 30 µM: 50%
[2]; test compound 100 μmol
  inhibition at 100 µM: 80%

## O=C(CCN(CCO)CCO)c1ccco1 [Example 174, 2-(N-bis(hydroxyethyl))aminoethyl-2-furylketone]
[1]; test compound 10 μmol
  SOCE level (percentage of inhibition): 0%
[1]; test compound 30 μmol
  SOCE level (percentage of inhibition): 0%
[1]; test compound 100 μmol
  SOCE level (percentage of inhibition): 0%
[2]; test compound 10 μmol
  IICR level (percentage of inhibition): 0%
[2]; test compound 30 μmol
  IICR level (percentage of inhibition): 0%
[2]; test compound 100 μmol
  IICR level (percentage of inhibition): 0%

## CN(CCC(=O)c1ccc[nH]1)Cc1ccccc1 [Example 175, 2-(N-benzylmethyl)aminoethyl-2-pyrrolylketone]
[1]; test compound 10 μmol
  inhibition at 10 µM: 0%
[1]; test compound 30 μmol
  inhibition at 30 µM: 0%
[1]; test compound 100 μmol
  inhibition at 100 µM: 0%
[2]; test compound 10 μmol
  inhibition at 10 µM: 10%
[2]; test compound 30 μmol
  inhibition at 30 µM: 10%
[2]; test compound 100 μmol
  inhibition at 100 µM: 20%

## O=C(CCNCCc1ncc[nH]1)c1cccnc1 [Example 176]
[1]; test compound 10 μmol
  inhibition at 10 µM: 0%
[1]; test compound 30 μmol
  inhibition at 30 µM: 0%
[1]; test compound 100 μmol
  inhibition at 100 µM: 0%
[2]; test compound 10 μmol
  inhibition at 10 µM: 10%
[2]; test compound 30 μmol
  inhibition at 30 µM: 30%
[2]; test compound 100 μmol
  inhibition at 100 µM: 50%

## O=C(CCN(CCO)Cc1ccccc1)c1cccnc1 [Example 177, 2-(N-2-hydroxyethylbenzyl)aminoethyl-3-pyridylketone]
[1]; test compound 10 μmol
  inhibition at 10 µM: 0%
[1]; test compound 30 μmol
  inhibition at 30 µM: 0%
[1]; test compound 100 μmol
  inhibition at 100 µM: 0%
[2]; test compound 10 μmol
  inhibition at 10 µM: 0%
[2]; test compound 30 μmol
  inhibition at 30 µM: 0%
[2]; test compound 100 μmol
  inhibition at 100 µM: 50%

## CC(C)N(CCO)CCCC(=O)c1ccccc1 [Example 178, 3-(N-isopropylhydroxyethyl)aminopropylphenylketone]
[1]; test compound 10 μmol
  inhibition at 10 µM: 0%
[1]; test compound 30 μmol
  inhibition at 30 µM: 0%
[2]; test compound 10 μmol
  IICR level (percentage of inhibition): 0%
[2]; test compound 30 μmol
  IICR level (percentage of inhibition): 0%
[2]; test compound 100 μmol
  IICR level (percentage of inhibition): 0%

## CC(C)N(CCCC(=O)c1ccccc1)Cc1ccccc1 [Example 179, 3-(N-isopropylbenzyl)aminopropylphenylketone]
[1]; test compound 10 μmol
  inhibition at 10 µM: 0%
[1]; test compound 30 μmol
  inhibition at 30 µM: 0%
[1]; test compound 100 μmol
  inhibition at 100 µM: 0%
[2]; test compound 10 μmol
  inhibition at 10 µM: 0%
[2]; test compound 30 μmol
  inhibition at 30 µM: 0%
[2]; test compound 100 μmol
  inhibition at 100 µM: 0%

## CCCCN(CCO)CCC(=O)c1cccnc1 [Example 180, 2-(N-2-hydroxyethylbutyl)aminoethyl-3-pyridylketone]
[1]; test compound 10 μmol
  inhibition at 10 µM: 0%
[1]; test compound 30 μmol
  inhibition at 30 µM: 0%
[1]; test compound 100 μmol
  inhibition at 100 µM: 0%
[2]; test compound 10 μmol
  inhibition at 10 µM: 0%
[2]; test compound 30 μmol
  inhibition at 30 µM: 0%
[2]; test compound 100 μmol
  inhibition at 100 µM: 50%

## CC(CN(CCO)C(C)C)C(=O)c1ccccc1F (centres unmarked) [Example 181, 1-methyl-2-(N-hydroxyethylisopropyl)aminoethyl-2-fluorophenylketone]
[1]; test compound 10 μmol
  inhibition at 10 µM: 20%
[1]; test compound 30 μmol
  inhibition at 30 µM: 40%
[1]; test compound 100 μmol
  inhibition at 100 µM: 80%
[2]; test compound 10 μmol
  inhibition at 10 µM: 0%
[2]; test compound 30 μmol
  inhibition at 30 µM: 10%
[2]; test compound 100 μmol
  inhibition at 100 µM: 20%

## CC(CN(Cc1ccccc1)C(C)C)C(=O)c1ccccc1F (centres unmarked) [Example 182, 1-methyl-2-(N-benzylisopropyl)aminoethyl-2-fluorophenylketone]
[1]; test compound 10 μmol
  inhibition at 10 µM: 10%
[1]; test compound 30 μmol
  inhibition at 30 µM: 50%
[1]; test compound 100 μmol
  inhibition at 100 µM: 80%
[2]; test compound 10 μmol
  inhibition at 10 µM: 0%
[2]; test compound 30 μmol
  inhibition at 30 µM: 0%
[2]; test compound 100 μmol
  inhibition at 100 µM: 50%

## CC(C)N(CCC(=O)c1cccs1)Cc1ccccc1 [Example 183, 2-(N-isopropylbenzyl)aminoethyl-2-thiophenylketone]
[1]; test compound 10 μmol
  inhibition at 10 µM: 0%
[1]; test compound 30 μmol
  inhibition at 30 µM: 0%
[1]; test compound 100 μmol
  inhibition at 100 µM: 20%
[2]; test compound 10 μmol
  inhibition at 10 µM: 0%
[2]; test compound 30 μmol
  inhibition at 30 µM: 0%
[2]; test compound 100 μmol
  inhibition at 100 µM: 50%

## O=C(CCN(CCO)Cc1ccccc1)c1ccsc1 [Example 184, 2-(N-2-hydroxyethylbenzyl)aminoethyl-3-thiophenylketone]
[1]; test compound 10 μmol
  inhibition at 10 µM: 0%
[1]; test compound 30 μmol
  inhibition at 30 µM: 0%
[1]; test compound 100 μmol
  inhibition at 100 µM: 0%
[2]; test compound 10 μmol
  inhibition at 10 µM: 30%
[2]; test compound 30 μmol
  inhibition at 30 µM: 50%
[2]; test compound 100 μmol
  inhibition at 100 µM: 60%

Reference: patent publication US8937091B2 (Japan Science and Technology Agency, priority 2009, dated 2015)
